Experiment [1] has as its target αCOPI-WD40 domain (residues 1-327) (Schizosaccharomyces pombe, UniProt Q96WV5, F197K/I192K/L181K/L185K/L196K). Kind of experiment: biochemical. In kind it is binding.
In experiment [2] the target is T1, sarbecovirus spike hepta-peptide, wild type (1267Gly-Val-Lys-Leu-His-Tyr-Thr1273) (SARS-CoV-2).
T1 peptide: GVKLHYT
The experiment can be described thus: BLI. The following applies: both partners purified.

Values joined by “and” are separate entries in the source; they are usually repeats but may differ in a detail not shown here. Equal entries are not always repeated. Peptide text beside a SMILES is read from it.

Consider `CC(C)C[C@H](NC(=O)[C@H](CCCCN)NC(=O)[C@@H](NC(=O)CN)C(C)C)C(=O)N[C@@H](Cc1c[nH]cn1)C(=O)N[C@@H](C)C(=O)N[C@H](C(=O)O)[C@@H](C)O` [GVKLHAT] (H-GVKLHAT-OH), for which, in experiment [1] (Equilibrium KD), binding was characterised by a dissociation constant (Kd) of 3770 ± 340 nM. Moreover, the Kd (commonly the free concentration of one partner at which half of the binding sites on the other are occupied at equilibrium, for simple one-to-one binding) in experiment [1] (Kinetic KD) worked out at 2320 ± 70 nM. Besides, in experiment [1] (pH 6.5), the koff (usually a measure of how fast the partners let go of each other) worked out at 0.28 ± 0.003 s⁻¹ and the kon – broadly, a measure of how fast the partners come together – is 120.87 ± 3.39 10^3/Ms.

In experiment [1] (Equilibrium KD), `CC(C)C[C@H](NC(=O)[C@H](CCCCN)NC(=O)[C@@H](NC(=O)CN)C(C)C)C(=O)N[C@@H](Cc1c[nH]cn1)C(=O)N[C@@H](Cc1ccc(O)cc1)C(=O)N[C@@H](C)C(=O)O` [GVKLHYA] (H-GVKLHYA-OH) registered a Kd of 1130 ± 50 nM. The molecule further returned a Kd in experiment [1] (Kinetic KD) of 1140 ± 20 nM. In experiment [1] (pH 6.5), the koff is 0.076 ± 0.001 s⁻¹ and the kon is recorded as 66.67 ± 0.80 10^3/Ms.

With `CC(C)C[C@H](NC(=O)[C@H](CCCCN)NC(=O)[C@@H](NC(=O)CN)C(C)C)C(=O)N[C@@H](Cc1c[nH]cn1)C(=O)N[C@@H](Cc1ccc(O)cc1)C(=O)N[C@@H](CCC(=O)O)C(=O)O` [GVKLHYE] (H-GVKLHYE-OH), in experiment [1] (Equilibrium KD), the dissociation constant (Kd) amounted to 310 ± 10 nM. Besides, in experiment [1] (Kinetic KD), the Kd was found to be 380 ± 10 nM. In experiment [1] (pH 6.5), the koff is 0.024 ± 0.0003 s⁻¹ and the kon is on record as 58.96 ± 0.54 10^3/Ms.

As for `CC(C)C[C@H](NC(=O)[C@H](CCCCN)NC(=O)[C@@H](NC(=O)CN)C(C)C)C(=O)N[C@@H](Cc1c[nH]cn1)C(=O)N[C@@H](Cc1ccc(O)cc1)C(=O)N[C@@H](CCC(N)=O)C(=O)O` [GVKLHYQ] (H-GVKLHYQ-OH), the Kd in experiment [1] (Equilibrium KD) was determined as 780 ± 40 nM. The Kd in experiment [1] (Kinetic KD) stood at 1150 ± 10 nM. For the same molecule, in experiment [1] (pH 6.5), the koff was determined as 0.066 ± 0.001 s⁻¹ and the kon is on record as 60.05 ± 0.75 10^3/Ms.

For the molecule `CC(C)C[C@H](NC(=O)[C@H](CCCCN)NC(=O)[C@@H](NC(=O)CN)C(C)C)C(=O)N[C@@H](Cc1c[nH]cn1)C(=O)N[C@@H](Cc1ccc(O)cc1)C(=O)N[C@@H](CCCNC(=N)N)C(=O)O` [GVKLHYR] (H-GVKLHYR-OH), the Kd in experiment [1] (Equilibrium KD) was 1730 ± 240 nM; in experiment [1] (Kinetic KD) it was 1290 ± 40 nM. This molecule also displayed a koff in experiment [1] (pH 6.5) of 0.177 ± 0.001 s⁻¹.

On to `CC(C)C[C@H](NC(=O)[C@H](CCCCN)NC(=O)[C@@H](NC(=O)CN)C(C)C)C(=O)N[C@@H](Cc1c[nH]cn1)C(=O)N[C@@H](Cc1ccc(O)cc1)C(=O)N[C@H](C(=O)O)[C@@H](C)O` [GVKLHYT] (H-GVKLHYT-OH), for which the Kd in experiment [1] (Equilibrium KD) was 4170 nM and 1400 nM; in experiment [1] (Kinetic KD), 2750 nM and 950 nM. The figures for the koff in experiment [1] (pH 6.5) and in experiment [1] (pH 7.5) were 0.145 ± 0.001 s⁻¹ and 0.25 ± 0.003 s⁻¹, respectively. Besides, the results for the kon in experiment [1] (pH 6.5) and in experiment [1] (pH 7.5) were 152.13 ± 3.45 10^3/Ms and 89.96 ± 2.72 10^3/Ms, respectively.

In experiment [1] (Equilibrium KD), `CC(C)C[C@H](NC(=O)[C@H](CCCCN)NC(=O)[C@@H](NC(=O)CN)C(C)C)C(=O)N[C@@H](Cc1c[nH]cn1)C(=O)N[C@@H](Cc1ccc(O)cc1)C(=O)N[C@H](C(=O)O)C(C)C` [GVKLHYV] (H-GVKLHYV-OH) registered a Kd of 3200 ± 40 nM. The molecule also gave a Kd in experiment [1] (Kinetic KD) of 2060 ± 50 nM. Moreover, in experiment [1] (pH 6.5), the koff is 0.212 ± 0.002 s⁻¹ and the kon was 102.67 ± 2.61 10^3/Ms.

In experiment [1] (Kinetic KD), `CC(C)C[C@H](NC(=O)[C@H](CCCCN)NC(=O)[C@@H](NC(=O)CN)C(C)C)C(=O)N[C@@H](CCCCN)C(=O)N[C@@H](Cc1ccc(O)cc1)C(=O)N[C@H](C(=O)O)[C@@H](C)O` [GVKLKYT] (H-GVKLKYT-OH) had a Kd of 2710 nM. In addition, in experiment [1] (pH 7.5), the koff came to 0.184 s⁻¹ and the kon was 67.3 ± 1.45 10^3/Ms.

Turning to GVALAYT, the “Binding to αCOPI-WD40 (in words)” value in experiment [1] (pH 6.5) is on record as “does not demonstrate any substantial binding”.

For GVALHYT, the “Binding to αCOPI-WD40 (in words)” value in experiment [1] (pH 6.5) is recorded as “abolished binding”.

As to GVKLAYT, the “Binding to αCOPI-WD40 (in words)” value in experiment [1] (pH 6.5) is “abolished binding”.

Regarding KEVYLHG, in experiment [1] (pH 6.5), the “Binding to αCOPI-WD40 (in words)” value is on record as “weak binding”.

With VLKTYHG, the “Binding to αCOPI-WD40 (in words)” value in experiment [1] (pH 7.5) was “no detectable interaction”.

B1: αCOPI-WD40 domain (residues 1-327) from Schizosaccharomyces pombe (domain or fragment)
chain: MEMLTKFESRSSRAKGVAFHPTQPWILTSLHNGRIQLWDYRMGTLLDRFDGHDGPVRGIAFHPTQPLFVSGGDDYKVNVWNYKSRKLLFSLCGHMDYVRVCTFHHEYPWILSCSDDQTIRIWNWQSRNCIAILTGHSHYVMCAAFHPSEDLIVSASLDQTVRVWDISGLRMKNAAPVSMSKEDQKAQAHNSKSNDKKGSTDAIVKFVLEGHDRGVNWCAFHPTLPLILSAGDDRLVKLWRMTASKAWEVDTCRGHFNNVSCCLFHPHQELILSASEDKTIRVWDLNRRTAVQTFRRDNDRFWFITVHPKLNLFAAAHDSGVMVFKLE
In the case of B1, in experiment [2], the dissociation rate constant (koff) is 0.145 s⁻¹ and 0.25 s⁻¹; the kon was 152000 M⁻¹ s⁻¹ and 90000 M⁻¹ s⁻¹.

Source of the values: PMC8825798 (Communications Biology, 2022).
